Data on 35 compounds can be found in US8951999B2, “Compounds” (Orexo AB, priority 2009, dated 2015).

pIC50: −log10 of the molar value.

The assay has as its target T1, recombinant human mPGES-1 (Homo sapiens, UniProt O14684).
T1 sequence (O14684 1-152): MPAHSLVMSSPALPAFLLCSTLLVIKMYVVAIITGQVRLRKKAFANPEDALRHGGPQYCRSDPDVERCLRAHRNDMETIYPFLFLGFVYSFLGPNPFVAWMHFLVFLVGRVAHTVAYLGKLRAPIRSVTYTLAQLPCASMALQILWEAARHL
In words: Assay B: mPGES-1 enzyme assay (modified). The class given is biochemical. Conditions: biological assay B (all other compounds); PGH2 final conc. 2 μM, HTRF; read-out: mPGES-1 inhibitory effect IC50. As for the experimental part:
Assay B: mPGES-1 Enzyme Assay (Modified)
The aim of this assay is to determine the affinity of a test compound for the mPGES-1 enzyme.
47 μl of recombinant human mPGES-1 (˜0.5 μg protein/well) containing microsomal suspension in a buffer containing GSH, (2.5 mmol/L L-Glutathione reduced, dissolved in 0.1 mol/L Phosphat Buffer pH 7.4) is dispensed in a 384-well plate and thereafter 1 μl of the test compound(s) is/are added and incubated for 25 minutes at room temperature. The enzyme reaction is started by the addition of 2 ul PGH2 (final conc. 2 μM) dissolved in water-free Diglyme. After 60 seconds the reaction is terminated by addition of a stop solution containing FeCl2 (10 μL 0.074 mol/l FeCl2). The samples are diluted between 1:25 in PBS (Phosphate Buffered Saline). 10 μl of the diluted samples are transferred to 384-well low volume plate. In order to quantify the amount of PGE2 that has been formed, a homogenous time resolved fluorescent (HTRF) detecting of PGE2 has been performed using a commercially available kit from Cisbio according to the manufactures recommendation. This HTRF-based assay has been described in detail (see: Goedken et al., J Biomol Screen, 2008, 13(7), 619-625). Briefly, the diluted samples are mixed with […] PGE2-d2 conjugate and 5 μl anti-PGE2 cryptate conjugate. After an incubation period of the plates over night, the fluorescence is measured by the use of an appropriate microplate reader.
The fluorescence of Europium cryptate (maxex=307 nm, maxem=620 nm) and d2-PGE2 (maxex=620 nm, maxem=665 nm) are measured.
The extent of the specific HTRF is measured as a ratio of the emission intensity at 665 nm vs. that at 620 nm at an excitation pulse of 320 nm. The quantification plate contains also wells with different concentrations of PGE2 as calibration curve for the calculation of the PGE2 concentrations from the HTRF ratio values.
From all mPGES enzyme assay the background is subtracted and the IC50 is calculated over a nonlinear regression with conventional software.
On the technique in general: Time-resolved FRET reads energy transfer from a long-lived donor to a nearby acceptor.
The pIC50 is the negative decadic logarithm of the IC50, by convention in mol/L. Regarding `CC(C)(C#N)C(=O)NCc1ccc(Cl)c(C(=O)Nc2ccc(OCC(F)F)c(C(=O)Nc3ccc(Br)cc3)c2)c1` [Example 165], the pIC50 is 8.10.
For the compound `CC1CCC(NC(=O)c2cc(NC(=O)c3cc(CNC(=O)C(C)(C)C(F)(F)F)ccc3Cl)ccc2OCC(F)F)CC1` (centres unmarked) [Example 96], the pIC50 was 8.30.
The figure for `CC(C)(C(=O)NCc1ccc(Cl)c(C(=O)Nc2ccc(OCC(F)F)c(C(=O)NC3CCC(F)(F)CC3)c2)c1Cl)C(F)(F)F` [Example 157] is 7.66; for `CC(C)(C)C(=O)NCc1ccc(Cl)c(C(=O)Nc2ccc(OCC(F)F)c(C(=O)N[C@H]3CC[C@H](C(F)(F)F)CC3)c2)c1Cl` [Example 48, N-[4-(2,2-Difluoroethyl)oxy-3-[trans-(4-trifluoromethylcyclohexyl)amino]carbonylphenyl]-2,6-dichloro-3-(tert-butylcarbonylamino)methyl-benzamide] it is 8.22.
The figure for `CC(C)(C(=O)NCc1ccc(Cl)c(C(=O)Nc2ccc(OCC(F)F)c(C(=O)NCC(F)(F)C(F)(F)F)c2)c1)C(F)(F)F` [Example 114] is 8.00; for `CC(C)(C(=O)NCc1ccc(Cl)c(C(=O)Nc2ccc(OCC(F)F)c(C(=O)Nc3ccc(F)c(Cl)c3)c2)c1F)C(F)(F)F` [Example 77, N-[4-(2,2-Difluoroethyl)oxy-3-(4-fluoro-3-chloro-phenyl)aminocarbonyl-phenyl]-6-chloro-2-fluoro-3-[(2,2,2-trifluoro-1,1-dimethyl-ethyl)carbonylamino]methyl-benzamide] it is 8.70.
The figure for `CC(C)(C)C(=O)NCc1ccc(Cl)c(C(=O)Nc2ccc(OC3CCOC3)c(C(=O)Nc3ccc(Br)cc3)c2)c1` (centres unmarked) [Example 66, N-[4-(Tetrahydrofuran-3-yloxy)-3-(4-bromophenyl)aminocarbonyl-phenyl]-2-chloro-5-(tert-butyl-carbonylaminomethyl)-benzamide] is 8.30.
In the case of `CC(C)(C(=O)NCc1ccc(Cl)c(C(=O)Nc2ccc(OCC(F)F)c(C(=O)NCc3ccccc3OC(F)(F)F)c2)c1)C(F)(F)F` [Example 132], the pIC50 is 8.22.
The figure for `COc1cc(NC(=O)c2cc(NC(=O)c3cc(CNC(=O)C(C)(C)C(F)(F)F)ccc3Cl)ccc2OCC(F)F)ccc1Br` [Example 120] is 8.15; for `CC(C)(O)C(=O)NCc1ccc(Cl)c(C(=O)Nc2ccc(OCC(F)F)c(C(=O)Nc3ccc(Br)cc3)c2)c1` [Example 172] it is 8.22.
In the case of `CC(C)(C(=O)NCc1ccc(Cl)c(C(=O)Nc2ccc(OCC(F)F)c(C(=O)NC3CCC4(CC3)CC4)c2)c1)C(F)(F)F` [Example 136], the pIC50 is 8.15.
Regarding `CC(C)(C)C(=O)NCc1ccc(Cl)c(C(=O)Nc2ccc(N3CC(F)(F)C3)c(C(=O)Nc3ccc(Br)cc3)c2)c1` [Example 60, N-[4-(3,3-Difluoro-azetidin-1-yl)-3-(4-bromphenyl)aminocarbonyl-phenyl]-2-chloro-5-(tert-butylcarbonylamino)methyl-benzamide], the pIC50 was 7.59.
For the compound `CC(C)(C(=O)NCc1ccc(Cl)c(C(=O)Nc2ccc(OCC(F)F)c(C(=O)NCc3ccc(C(F)(F)F)cc3)c2)c1)C(F)(F)F` [Example 104], the pIC50 was 8.00.
The figure for `CC(C)(C(=O)NCc1ccc(Cl)c(C(=O)Nc2ccc(OCC(F)F)c(C(=O)Nc3ccccc3Cl)c2)c1)C(F)(F)F` [Example 139] is 8.22; for `O=C(Nc1ccc(Br)cc1)c1cc(NC(=O)c2c(F)ccc(CNC(=O)C(F)(F)F)c2Cl)ccc1OCC(F)F` [Example 43, N-[4-(2,2-Difluoroethyl)oxy-3-(4-bromophenyl)aminocarbonyl-phenyl]-6-fluor-2-chlor-3-(trifluormethylcarbonylamino)methyl-benzamide] it is 6.92.
For the compound `NC(C(=O)NCc1ccc(Cl)c(C(=O)Nc2ccc(OCC(F)F)c(C(=O)Nc3ccc(Br)cc3)c2)c1)C(F)(F)F` (centres unmarked) [Example 174], the pIC50 was 8.10.
For the compound `CC(C)(C)C(=O)NCc1ccc(F)c(C(=O)Nc2ccc(OCC(F)F)c(C(=O)N[C@H]3CC[C@H](C(F)(F)F)CC3)c2)c1F` [Example 50], the pIC50 is 7.47.
The figure for `CC(C)(C(=O)NCc1ccc(Cl)c(C(=O)Nc2ccc(OCC(F)F)c(C(=O)NC3CCC(CO)CC3)c2)c1)C(F)(F)F` (centres unmarked) [Example 103] is 6.63; for `CC1(NC(=O)c2cc(NC(=O)c3c(Cl)ccc(CNC(=O)C(C)(C)C(F)(F)F)c3Cl)ccc2OCC(F)F)CCOCC1` [Example 155] it is 6.82; for `CC(C)(C(=O)NCc1ccc(Cl)c(C(=O)Nc2ccc(OCC(F)F)c(C(=O)Nc3ccc(Cl)cc3Cl)c2)c1)C(F)(F)F` [Example 94] it is 8.22.
As to `CC(C)(C(=O)NCc1ccc(Cl)c(C(=O)Nc2ccc(OCC(F)F)c(C(=O)NC3CC4CCC3C4)c2)c1)C(F)(F)F` (centres unmarked) [Example 124], the pIC50 is 8.30.
The result for `CC(C)(C(=O)NCc1ccc(Cl)c(C(=O)Nc2ccc(OCC(F)F)c(C(=O)Nc3ccc(Cl)c(F)c3)c2)c1Cl)C(F)(F)F` [Example 156] reads 9.00; that for `CC(C)(C)C(=O)NCc1ccc(Cl)c(C(=O)Nc2ccc(N3CCC(F)CC3)c(C(=O)Nc3ccc(Br)cc3)c2)c1Cl` [Example 61], 8.30; that for `CC(C)(C(=O)NCc1ccc(Cl)c(C(=O)Nc2ccc(OC3CCOC3)c(C(=O)Nc3ccc(Br)cc3)c2)c1)C(F)(F)F` (centres unmarked) [Example 69], 8.40.
As to `CC(C)(C(=O)NCc1ccc(Cl)c(C(=O)Nc2ccc(OCC(F)F)c(C(=O)NCCC(F)(F)F)c2)c1Cl)C(F)(F)F` [Example 146], the negative-log IC50 (pIC50) was 7.85.
As for `CC(C)(C)NC(=O)c1cc(NC(=O)c2c(Cl)ccc(CNC(=O)C(C)(C)C(F)(F)F)c2F)ccc1OCC(F)F` [Example 78], the pIC50 is 8.70.
As to `CC(O)(C(=O)NCc1ccc(Cl)c(C(=O)Nc2ccc(OCC(F)F)c(C(=O)Nc3ccc(Br)cc3)c2)c1)C(F)(F)F` (centres unmarked) [Example 166], the pIC50 is 8.10.
For `CC(C)(C)C(=O)NCc1ccc(Cl)c(C(=O)Nc2ccc(N3CCC(F)(F)C3)c(C(=O)Nc3ccc(Br)cc3)c2)c1Cl` [Example 179], the pIC50 is 8.40.
The figure for `COc1cc(Cl)ccc1NC(=O)c1cc(NC(=O)c2cc(CNC(=O)C(C)(C)C(F)(F)F)ccc2Cl)ccc1OCC(F)F` [Example 91] is 8.22.
On to `CC(C)(C(=O)NCc1ccc(Cl)c(C(=O)Nc2ccc(OCC(F)F)c(C(=O)Nc3cc(C(F)(F)F)ccn3)c2)c1)C(F)(F)F` [Example 109], for which the pIC50 was 7.89.
Turning to `CC(C)(C(=O)NCc1ccc(Cl)c(C(=O)Nc2ccc(OCC(F)F)c(C(=O)Nc3ccc(Br)c(F)c3)c2)c1)C(F)(F)F` [Example 133], the pIC50 was 8.22.
Consider `CC(C)(C(=O)NCc1ccc(Cl)c(C(=O)Nc2ccc(OCC(F)F)c(C(=O)Nc3cccc(F)c3)c2)c1)C(F)(F)F` [Example 119], for which the pIC50 was 8.30.
The result for `COCCOc1ccc(NC(=O)c2cc(CNC(=O)C(C)C(F)(F)F)ccc2Cl)cc1C(=O)Nc1ccc(Br)cc1` (centres unmarked) [Example 65, N-[4-(2-Methoxy)ethoxy-3-(4-bromphenyl)aminocarbonyl-phenyl]-2-chloro-5-(2,2,2-trifluoro-1-methyl-ethyl)carbonylaminomethyl-benzamide] reads 8.40; that for `O=C(Nc1ccc(OCC(F)F)c(C(=O)Nc2ccc(Br)cc2)c1)c1cc(CNC(=O)C2(O)CC2)ccc1Cl` [Example 162], 8.10.
Consider `CC(C)(C(=O)NCc1ccc(Cl)c(C(=O)Nc2ccc(OCC(F)F)c(C(=O)NC3CCSCC3)c2)c1)C(F)(F)F` [Example 90], for which the pIC50 is 8.05.
